Experimental data reported in patent US20140099262A1, “ISOTOPICALLY LABELED CDP-CHOLINE AND USES THEREOF” (BRAIN WATCH LTD., priority 2011, published 2014).
Marks after values point to notes of the source that are not given here.

What was measured:
[1] = 31P T1 (spin-lattice relaxation) measurement of CDP-Choline phosphates by inversion recovery, in water and in plasma; assay type: physicochemical; details: 31P-NMR, 11.8T, confidence interval in brackets
Description: […] CDP-Choline were dissolved in 700 μL distilled water containing 10% deuterated water (85.7 mM solution) and stored in a 5 mm NMR tube in the freezer until assay.
Two units of expired plasma (about 250 cc per unit) from blood type AB and O were obtained frozen from the blood bank section at Hadassah Medical Center. Plasma was defrosted in the refrigerator overnight. 565 μl of plasma solution was mixed with 75 IA distilled water and transferred to a 5 mm NMR tube. The solution was kept on ice until NMR analysis the same day. 60 μl CDP-Choline was added to the solution and ^31P-NMR was recorded 37 s from the time CDP-Choline mixed with the plasma solutions in the NMR tube. The Ionic strength of the solution was 315.04 mM and the concentration of CDP-Choline 15.4 mM.
Spectra were obtained on an 11.8T high-resolution spectrometer (Varian, Palo Alto, Calif., USA) with a 5 mm direct multi-nuclei probe.
T1 measurements were performed for CDP-Choline in water and in plasma with the standard inversion recovery pulse sequence. The data were fitted to the standard inversion recovery equation using the MATLAB software (The MathWorks Inc., Natick, Mass., USA).

[2] = T1 of carbon-13 nuclei in the choline moiety of CDP-choline; assay type: physicochemical; details: 11.8 T, non-deuterated positions
Description: Furthermore, it was unexpected to find that the relaxation time of the phosphorus nuclei is longer in plasma as compared to water.

[3] = intravenous administration; cited from earlier work

## C[N+](C)(C)CCOP(=O)(O)OP(=O)(O)OC[C@H]1O[C@@H](n2ccc(N)nc2=O)[C@H](O)[C@@H]1O [CDP-Choline, 5′-O-[hydroxy({hydroxy[2-(trimethylammonio)ethoxy]phosphoryl}oxy)phosphoryl]cytidine]
[1]; H2O, 85.7 mM
  T1 of phosphate P1: 1.2 (0.9-1.5) s
  T1 of phosphate P2: 1.4 (1.3-1.6) s
[1]; plasma, 15.4 mM
  T1 of phosphate P1: 2.0 (1.9-2.0)* s
  T1 of phosphate P2: 2.6 (2.4-2.8) s
[2]
  T1 of the carbon-13 nuclei in the choline moiety: 2 to 3 s
[3]
  LD0 of CDP-Choline compared to choline: about 40 fold
